Experimental data published in article PMC4457528, “Identification of Novel Small Molecule Inhibitors of Oncogenic RET Kinase” (PLoS ONE, 2015).
Like-named read-outs stand apart in the source and are kept apart here.

Tests used:
Assay in all cases: KinomeScan kinase panel, single concentration 10 µM
Type in all cases: binding
[1] = biological target: T1, KinomeScan kinase panel (Homo sapiens, UniProt O96017); conditions: CHEK2, 10 µM; read-out: score (%)
T1 construct: purchased DiscoveRx (KinomeScan)

[2] = biological target: T2, KinomeScan kinase panel (Homo sapiens, UniProt P24723); conditions: 10 µM, read-out: score (%)
T2 construct: purchased DiscoveRx (KinomeScan)

[3] = biological target: T3, KinomeScan kinase panel (Homo sapiens, UniProt Q00535); conditions: CDK5, 10 µM; read-out: score (%)
T3 construct: purchased DiscoveRx (KinomeScan)

[4] = biological target: T4, KinomeScan kinase panel (Homo sapiens, UniProt Q02763); conditions: read-out: score (%)
T4 construct: purchased DiscoveRx (KinomeScan)

[5] = biological target: T5, KinomeScan kinase panel (Homo sapiens, UniProt Q15303); conditions: ERBB4, 10 µM; read-out: score (%)
T5 construct: purchased DiscoveRx (KinomeScan)

[6] = biological target: T6, KinomeScan kinase panel (Homo sapiens, UniProt Q7L7X3); conditions: read-out: score (%)
T6 construct: purchased DiscoveRx (KinomeScan)
T6 sequence (Q7L7X3 1-1001): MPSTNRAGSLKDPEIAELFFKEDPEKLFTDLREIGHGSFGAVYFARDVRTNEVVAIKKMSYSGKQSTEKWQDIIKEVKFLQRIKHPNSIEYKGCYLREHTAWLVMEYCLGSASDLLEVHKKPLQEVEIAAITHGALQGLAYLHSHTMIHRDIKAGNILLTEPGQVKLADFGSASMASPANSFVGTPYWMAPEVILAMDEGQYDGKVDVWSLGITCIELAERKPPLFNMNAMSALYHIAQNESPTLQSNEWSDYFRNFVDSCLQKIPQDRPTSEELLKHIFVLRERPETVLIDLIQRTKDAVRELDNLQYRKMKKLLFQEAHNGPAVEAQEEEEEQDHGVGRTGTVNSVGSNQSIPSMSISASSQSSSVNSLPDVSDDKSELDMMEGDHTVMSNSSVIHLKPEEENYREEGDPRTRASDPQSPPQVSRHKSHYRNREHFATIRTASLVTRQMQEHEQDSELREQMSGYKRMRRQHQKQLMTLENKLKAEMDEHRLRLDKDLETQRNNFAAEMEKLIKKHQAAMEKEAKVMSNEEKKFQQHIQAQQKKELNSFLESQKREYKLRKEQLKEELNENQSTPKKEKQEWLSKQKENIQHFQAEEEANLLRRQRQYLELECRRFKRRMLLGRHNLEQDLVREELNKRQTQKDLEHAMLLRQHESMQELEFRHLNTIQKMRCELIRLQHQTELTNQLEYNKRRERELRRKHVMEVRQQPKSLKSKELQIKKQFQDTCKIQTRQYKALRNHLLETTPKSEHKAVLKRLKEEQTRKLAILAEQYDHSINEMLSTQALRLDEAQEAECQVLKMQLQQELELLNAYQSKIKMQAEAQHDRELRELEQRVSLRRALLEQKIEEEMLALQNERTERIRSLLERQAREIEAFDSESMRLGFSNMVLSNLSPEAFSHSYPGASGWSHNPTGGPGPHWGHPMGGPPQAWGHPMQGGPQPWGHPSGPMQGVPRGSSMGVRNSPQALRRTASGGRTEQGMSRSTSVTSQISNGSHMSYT

[7] = biological target: T7, KinomeScan kinase panel (Homo sapiens, UniProt Q8IYT8); conditions: kinase ULK2; 10 µM; read-out: score (%)
T7 construct: purchased DiscoveRx (KinomeScan)
T7 sequence (Q8IYT8 1-1036): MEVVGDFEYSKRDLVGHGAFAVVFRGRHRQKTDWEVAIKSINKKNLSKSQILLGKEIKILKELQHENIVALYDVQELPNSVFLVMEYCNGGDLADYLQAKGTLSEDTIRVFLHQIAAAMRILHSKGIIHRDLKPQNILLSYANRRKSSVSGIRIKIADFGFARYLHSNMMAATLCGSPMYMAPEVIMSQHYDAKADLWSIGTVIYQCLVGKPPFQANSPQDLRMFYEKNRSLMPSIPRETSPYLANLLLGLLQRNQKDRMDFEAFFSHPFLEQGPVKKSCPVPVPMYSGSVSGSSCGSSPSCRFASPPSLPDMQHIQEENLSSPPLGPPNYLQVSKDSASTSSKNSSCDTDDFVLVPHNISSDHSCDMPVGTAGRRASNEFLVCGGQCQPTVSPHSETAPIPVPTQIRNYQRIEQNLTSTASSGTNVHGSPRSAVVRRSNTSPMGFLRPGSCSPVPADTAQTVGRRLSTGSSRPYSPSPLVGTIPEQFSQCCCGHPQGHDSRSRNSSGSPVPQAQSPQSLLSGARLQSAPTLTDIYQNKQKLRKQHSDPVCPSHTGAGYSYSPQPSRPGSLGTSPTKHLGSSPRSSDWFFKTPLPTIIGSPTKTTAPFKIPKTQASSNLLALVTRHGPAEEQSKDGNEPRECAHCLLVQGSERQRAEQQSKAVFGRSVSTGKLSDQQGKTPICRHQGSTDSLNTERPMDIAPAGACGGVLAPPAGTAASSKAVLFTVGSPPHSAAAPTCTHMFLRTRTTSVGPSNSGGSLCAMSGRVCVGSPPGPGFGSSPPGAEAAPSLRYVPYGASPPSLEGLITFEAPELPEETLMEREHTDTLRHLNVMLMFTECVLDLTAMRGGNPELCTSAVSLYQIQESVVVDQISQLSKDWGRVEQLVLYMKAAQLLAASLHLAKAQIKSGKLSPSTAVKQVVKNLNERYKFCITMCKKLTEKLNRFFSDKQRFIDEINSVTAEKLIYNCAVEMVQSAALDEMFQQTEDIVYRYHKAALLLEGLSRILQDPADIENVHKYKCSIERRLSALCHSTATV

T5 sequence (Q15303 26-1308): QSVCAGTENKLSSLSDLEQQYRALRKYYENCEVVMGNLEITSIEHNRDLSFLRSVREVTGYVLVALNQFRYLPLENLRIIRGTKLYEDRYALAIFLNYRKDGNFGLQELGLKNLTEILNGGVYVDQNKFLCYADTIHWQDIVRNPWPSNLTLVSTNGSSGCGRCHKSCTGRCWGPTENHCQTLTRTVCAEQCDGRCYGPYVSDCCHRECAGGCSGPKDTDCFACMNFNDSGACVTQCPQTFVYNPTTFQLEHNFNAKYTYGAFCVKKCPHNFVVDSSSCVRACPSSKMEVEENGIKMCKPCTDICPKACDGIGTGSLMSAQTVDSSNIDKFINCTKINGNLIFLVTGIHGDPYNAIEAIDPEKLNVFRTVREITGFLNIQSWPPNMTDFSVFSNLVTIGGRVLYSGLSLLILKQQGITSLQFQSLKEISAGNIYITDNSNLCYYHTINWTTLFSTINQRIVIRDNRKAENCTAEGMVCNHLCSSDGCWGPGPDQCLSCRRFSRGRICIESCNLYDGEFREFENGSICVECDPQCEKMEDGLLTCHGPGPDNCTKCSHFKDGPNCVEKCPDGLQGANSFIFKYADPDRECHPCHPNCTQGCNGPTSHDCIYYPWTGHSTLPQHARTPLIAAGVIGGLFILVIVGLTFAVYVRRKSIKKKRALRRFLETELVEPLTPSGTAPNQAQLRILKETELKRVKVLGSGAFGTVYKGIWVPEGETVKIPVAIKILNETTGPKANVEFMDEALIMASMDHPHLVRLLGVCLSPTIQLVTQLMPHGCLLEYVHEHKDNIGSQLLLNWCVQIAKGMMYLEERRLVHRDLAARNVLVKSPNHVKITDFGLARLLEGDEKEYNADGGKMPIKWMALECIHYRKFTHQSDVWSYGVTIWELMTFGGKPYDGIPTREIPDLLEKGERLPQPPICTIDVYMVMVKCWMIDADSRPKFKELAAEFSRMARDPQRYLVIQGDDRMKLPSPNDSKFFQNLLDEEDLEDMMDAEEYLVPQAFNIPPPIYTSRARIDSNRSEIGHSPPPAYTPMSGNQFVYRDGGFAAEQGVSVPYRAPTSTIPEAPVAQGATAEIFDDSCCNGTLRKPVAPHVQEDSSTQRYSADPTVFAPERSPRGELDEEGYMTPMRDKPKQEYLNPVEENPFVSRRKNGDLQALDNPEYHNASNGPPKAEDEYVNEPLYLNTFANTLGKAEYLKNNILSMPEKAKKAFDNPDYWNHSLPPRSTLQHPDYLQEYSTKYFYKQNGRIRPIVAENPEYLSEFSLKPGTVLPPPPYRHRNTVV
T2 sequence (P24723 whole entry): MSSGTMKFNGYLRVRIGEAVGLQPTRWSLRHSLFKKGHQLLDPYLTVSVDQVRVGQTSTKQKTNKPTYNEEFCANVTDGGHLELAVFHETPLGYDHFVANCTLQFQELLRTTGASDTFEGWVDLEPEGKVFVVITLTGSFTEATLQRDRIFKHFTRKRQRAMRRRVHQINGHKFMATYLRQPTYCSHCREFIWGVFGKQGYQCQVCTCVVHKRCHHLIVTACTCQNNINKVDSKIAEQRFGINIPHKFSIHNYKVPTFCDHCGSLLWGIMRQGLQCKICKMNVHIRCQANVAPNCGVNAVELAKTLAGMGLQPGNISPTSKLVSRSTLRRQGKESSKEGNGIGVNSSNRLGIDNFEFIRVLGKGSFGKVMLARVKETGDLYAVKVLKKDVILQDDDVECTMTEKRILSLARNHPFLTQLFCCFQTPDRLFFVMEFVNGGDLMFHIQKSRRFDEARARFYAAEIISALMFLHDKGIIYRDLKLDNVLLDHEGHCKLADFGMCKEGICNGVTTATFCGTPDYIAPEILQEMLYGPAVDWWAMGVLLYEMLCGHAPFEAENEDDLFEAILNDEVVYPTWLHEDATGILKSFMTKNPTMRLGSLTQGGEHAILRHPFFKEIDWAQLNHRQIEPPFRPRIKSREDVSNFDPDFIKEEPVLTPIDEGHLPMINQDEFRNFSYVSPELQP
T1 sequence (O96017 whole entry): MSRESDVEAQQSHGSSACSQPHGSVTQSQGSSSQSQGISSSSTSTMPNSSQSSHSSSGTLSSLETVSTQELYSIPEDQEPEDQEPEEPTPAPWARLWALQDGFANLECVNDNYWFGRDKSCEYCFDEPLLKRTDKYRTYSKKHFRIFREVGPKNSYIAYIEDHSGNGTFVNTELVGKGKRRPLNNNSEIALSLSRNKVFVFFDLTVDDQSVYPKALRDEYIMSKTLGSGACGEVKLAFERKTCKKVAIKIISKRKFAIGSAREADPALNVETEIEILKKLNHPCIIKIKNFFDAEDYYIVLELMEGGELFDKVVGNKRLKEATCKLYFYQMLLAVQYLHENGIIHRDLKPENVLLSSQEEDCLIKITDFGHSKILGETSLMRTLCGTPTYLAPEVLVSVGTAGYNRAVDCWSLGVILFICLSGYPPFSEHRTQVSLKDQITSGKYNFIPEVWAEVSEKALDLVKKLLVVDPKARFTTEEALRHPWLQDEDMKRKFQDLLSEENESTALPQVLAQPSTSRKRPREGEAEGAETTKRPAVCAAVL
T3 sequence (Q00535 whole entry): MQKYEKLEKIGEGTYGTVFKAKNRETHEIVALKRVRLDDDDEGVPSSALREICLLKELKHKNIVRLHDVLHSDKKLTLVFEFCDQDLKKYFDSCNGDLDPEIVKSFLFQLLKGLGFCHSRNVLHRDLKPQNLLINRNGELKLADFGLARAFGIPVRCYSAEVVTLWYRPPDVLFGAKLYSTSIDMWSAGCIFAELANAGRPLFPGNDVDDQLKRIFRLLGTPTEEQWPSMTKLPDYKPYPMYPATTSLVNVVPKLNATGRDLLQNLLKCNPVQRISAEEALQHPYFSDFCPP
T4 sequence (Q02763 23-1124): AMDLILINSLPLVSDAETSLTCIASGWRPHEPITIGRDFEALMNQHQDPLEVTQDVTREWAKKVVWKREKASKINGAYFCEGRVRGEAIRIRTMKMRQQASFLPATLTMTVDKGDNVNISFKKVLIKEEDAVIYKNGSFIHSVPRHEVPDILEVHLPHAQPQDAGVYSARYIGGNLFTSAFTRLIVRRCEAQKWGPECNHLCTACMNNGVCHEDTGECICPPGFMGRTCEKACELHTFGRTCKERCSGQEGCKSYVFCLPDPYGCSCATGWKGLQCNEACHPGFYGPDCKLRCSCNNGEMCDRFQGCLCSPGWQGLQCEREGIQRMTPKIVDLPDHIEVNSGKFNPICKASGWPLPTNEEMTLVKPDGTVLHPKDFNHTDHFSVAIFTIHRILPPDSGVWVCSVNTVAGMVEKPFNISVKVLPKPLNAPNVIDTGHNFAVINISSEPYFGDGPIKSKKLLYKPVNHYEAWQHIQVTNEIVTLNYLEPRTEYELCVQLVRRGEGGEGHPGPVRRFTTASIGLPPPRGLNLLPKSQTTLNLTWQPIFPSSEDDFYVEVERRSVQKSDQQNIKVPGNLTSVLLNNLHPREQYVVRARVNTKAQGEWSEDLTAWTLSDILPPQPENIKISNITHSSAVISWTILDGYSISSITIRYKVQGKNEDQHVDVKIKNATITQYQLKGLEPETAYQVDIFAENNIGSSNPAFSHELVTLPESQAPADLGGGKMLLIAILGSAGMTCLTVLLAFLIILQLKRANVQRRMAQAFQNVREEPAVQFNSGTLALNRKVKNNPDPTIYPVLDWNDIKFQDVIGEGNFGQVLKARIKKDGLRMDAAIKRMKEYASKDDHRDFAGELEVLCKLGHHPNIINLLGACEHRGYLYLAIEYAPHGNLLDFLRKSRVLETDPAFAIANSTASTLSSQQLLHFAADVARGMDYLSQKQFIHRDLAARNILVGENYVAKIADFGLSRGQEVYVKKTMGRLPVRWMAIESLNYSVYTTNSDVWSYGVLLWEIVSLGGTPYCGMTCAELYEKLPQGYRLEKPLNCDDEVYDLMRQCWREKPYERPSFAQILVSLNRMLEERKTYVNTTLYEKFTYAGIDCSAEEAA

remaining binding at 10 µM ([4]; TIE2, 10 µM) [%] | remaining binding at 10 µM ([6]; TAOK1, 10 µM) [%] | Structure (SMILES) | remaining binding at 10 µM [1] [%] | remaining binding at 10 µM ([2]; kinase PRKCH) [%] | remaining binding at 10 µM [3] [%] | remaining binding at 10 µM ([4]; kinase TIE2, 10 µM) [%] | remaining binding at 10 µM [5] [%] | remaining binding at 10 µM ([6]; kinase TAOK1, 10 µM) [%] | remaining binding at 10 µM [7] [%] | remaining binding at 10 µM ([2]; PRKCH) [%]
 |  | CCN1CCN(Cc2ccc(NC(=O)c3ccc(C)c(C#Cc4cccnc4)c3)cc2C(F)(F)F)CC1 [XMD15-44] | > 30 | 67 | 10 | 0.05 | 1.8 | 0.25 | 50 | 
0.1 | 6.5 | CCN1CCN(Cc2ccc(NC(=O)c3ccc(C)c(/C=C/c4cnc5[nH]ccc5c4Cl)c3)cc2C(F)(F)F)CC1 [HG-6-63-01, (E)-3-(2-(4-chloro-1H-pyrrolo[2,3-b]pyridin-5-yl)vinyl)-N-(4-((4-ethylpiperazin-1-yl)methyl)-3-(trifluoromethyl)phenyl)-4-methylbenzamide] | > 30 |  | > 30 |  | 0.7 |  | 27 | > 30
 |  | CCN1CCN(Cc2ccc(NC(=O)c3ccc(C)c(NC(=O)c4cncc(-c5cccs5)c4)c3)cc2C(F)(F)F)CC1 [ALW-II-41-27] | > 30 |  | > 30 | 0.45 | 1.3 | > 30 | > 30 | 4.6
